Experimental findings from patent publication US7129368B2, “Platinum carboxylate anticancer compounds” (Sonus Pharmaceuticals, Inc., priority 2004, dated 2006) are described below.

Data set [1] concerns HCT-116 colorectal carcinoma cells. In words: ALAMAR BLUE cytotoxicity assay in HCT-116 cells. As to conditions: HCT-116, ALAMAR BLUE, 48 hours incubation with drug. In kind it is cell-based. The procedure: (§1) ALAMAR BLUE Assay. […] Cytotoxicity was measured in two cell lines: a colorectal carcinoma cell line (HCT-116); and a non-small cell lung cancer cell line (NCI-H460). The marker used to quantify cell growth inhibition was ALAMAR BLUE, a non-fluorescent blue dye that is reduced to a fluorescent red product by viable cells. The amount of fluorescence is proportional to the number of viable cells.
(§2) Screening in HCT-116 cells. HCT-116 colorectal carcinoma cells (ATCC # CCL-247) were inoculated into a set of twenty-four 96-well microtiter plates containing 100 μl of McCoy's 5A media (HyClone, Logan, Utah) per well to a plating density of 7500 cells per well. After cell inoculation, the microtiter plates were incubated at 37° C., 5% CO2, 95% air and 100% relative humidity for 24 hours. After 24 hours incubation, ALAMAR BLUE reagent (Biosource, Camarillo, Calif.) was added to two plates to a final concentration of 10% v/v in each well. The plates were returned to the incubator for 4 hours and then read in a Perkin Elmer HTS 7000 Bio Assay Reader using an excitation wavelength of 535 nm and an emission wavelength of 590 nm to determine the cell population at the time of drug addition—time zero.
(§3) Two no-drug control plates were also prepared.
(§4) Following drug addition, the plates were incubated for an additional 48 hours at the conditions above.
(§5) After 48 hours of incubation the plates were removed and ALAMAR BLUE reagent was added to a final concentration of 10% v/v to each well. The plates were returned to the incubator for 4 hours and read in the Bio Assay Reader as described above.
On the technique in general: Alamar Blue is a resazurin reagent that responds to reducing activity.

Data set [2] relates to NCI-H460 non-small cell lung cancer cells. In words: ALAMAR BLUE cytotoxicity assay in NCI-H460 cells. It is filed as cell-based. The settings on record: H-460, ALAMAR BLUE, 48 hours incubation with drug. The procedure: as §1, §2, §3, §4, §5
Screening in NCI-H460 cells. The screening protocol above was repeated using NCI-H460 non-small cell lung cancer cells (ATCC # HTB-177) plated to a density of 10,000 cells per well in RPMI media (Mediatech, Inc., Herndon, Va.).

In data set [3] the test system is HT29 colorectal carcinoma cell line. In words: MTS cytotoxicity assay in HT29 cells. In kind it is cell-based. The settings on record: 72 hours of treatment, read-out: Growth Inhibition (GI50). The procedure: (§6) MTS Assay. […] Cytotoxicity was measured in six cell lines: two colorectal carcinoma cell lines, HT29 (ATCC # CCL-218) and HCT-116 (ATCC # CCL-247); two small cell lung cancer cell lines, NCI-H69 (ATCC # HTB-119) and NCI-H69/AR (ATCC # CRL-11351); and two ovarian cancer cell lines, A2780 (ECACC # 93112519) and A2780/DPPt (similar strain, A2780 cis, available at ECACC # 93112517). Viable cell number was measured using the MTS cell viability assay ([…] 96 AQueous One Solution Cell Proliferation Assay kit available from Promega, USA). Cell growth inhibition was quantified by measuring absorbance at 490 nm, which is directly proportional to the number of living cells in culture.
(§7) The platinum compounds were prepared as 10 mM stock solutions in water containing 5% dextrose (D5W). Cisplatin was prepared in saline. Dosing solutions were prepared by serial dilution of the stock solutions in cell culture medium to provide final concentrations of 0.006–100 μM.
(§8) All tumor lines were propagated under sterile conditions and incubated at 37° C. in HEPA-filtered CO2 tissue culture incubators with 5% CO2 and 95% humidity in colorless RPMI 1640 medium (Mediatech, Hemdon, Va.) containing 5% fetal bovine serum (complete medium). […]
(§9) Viable cell number was measured by the MTS dye conversion assay after a total of 72 hours of treatment. […] The absorbance was measured at 490 nm on a Coulter microplate reader.
(Formazan colour is commonly taken as a measure of viable cells.)

For data set [4], the system named is HCT-116 colorectal carcinoma cell line. In words: MTS cytotoxicity assay in HCT-116 cells. In kind it is cell-based. As to conditions: HCT-116, MTS, 72 hours of treatment; read-out: Growth Inhibition (GI50). The procedure:
as §6, §7, §8, §9

For data set [5], the system named is NCI-H69 small cell lung cancer cell line. In words: MTS cytotoxicity assay in NCI-H69 cells. It is filed as cell-based. The settings on record: 72 hours of treatment, read-out: Growth Inhibition (GI50). The procedure: as §6, §7, §8, §9
The test system of data set [6] is NCI-H69/AR small cell lung cancer cell line. In words: MTS cytotoxicity assay in NCI-H69/AR cells. The settings on record: 72 hours of treatment, read-out: Growth Inhibition (GI50). In kind it is cell-based. The procedure:
as §6, §7, §8, §9

In data set [7] the test system is A2780 ovarian cancer cell line. In words: MTS cytotoxicity assay in A2780 cells. In kind it is cell-based. The settings on record: 72 hours of treatment, read-out: Growth Inhibition (GI50). The procedure: as §6, §7, §8, §9
Data set [8] concerns A2780/DPPt ovarian cancer cell line. The data set is described as follows: MTS cytotoxicity assay in A2780/DPPt cells. As to conditions: A2780/DDPT, 72 hours of treatment, read-out: Growth Inhibition (GI50). In kind it is cell-based.
Procedure: MTS Assay. […] Cytotoxicity was measured in six cell lines: two colorectal carcinoma cell lines, HT29 (ATCC # CCL-218) and HCT-116 (ATCC # CCL-247); two small cell lung cancer cell lines, NCI-H69 (ATCC # HTB-119) and NCI-H69/AR (ATCC # CRL-11351); and two ovarian cancer cell lines, A2780 (ECACC # 93112519) and A2780/DPPt (similar strain, A2780 cis, available at ECACC # 93112517). Viable cell number was measured using the MTS cell viability assay ([sequence] 96 AQueous One Solution Cell Proliferation Assay kit available from Promega, USA). Cell growth inhibition was quantified by measuring absorbance at 490 nm, which is directly proportional to the number of living cells in culture.
A short description of data set [9]: Effect of pH on CDTA-diplatinum/CDTA-monoplatinum interconversion (HPLC). It is filed as physicochemical. The procedure: Cyclohexane-trans-1,2-diaminetetraacetic-acid-diplatinum (CDTA-diplatinum) was prepared according to Example 1. Three solutions of CDTA-diplatinum were prepared: 1 mg/ml in water (pH ˜6.5) (Solution 1); 1 mg/ml in 0.01 N NaOH (pH˜9.5) (Solution 2); and 1 mg/ml in 0.01 N HCl (pH˜2) (Solution 3).

Setting [10] is: Solution 1: 1 mg/ml in water (pH ~6.5).
Setting [11] is: Solution 2: 1 mg/ml in 0.01 N NaOH (pH ~9.5).
Setting [12] is: Solution 3: 1 mg/ml in 0.01 N HCl (pH ~2).

One may read the GI50 as the concentration that inhibits growth by half. Consider “cyclohexane-trans-1,2-diaminetetraacetic-acid-diplatinum [CDTA-diplatinum]”, for which the concentration for 50% growth inhibition (GI50) worked out at 0.55 µM in data set [1]; 0.371 µM in [2]; 78 µM in [3]; 24 µM in [4]; 6.69 µM in [5]; 8.9 µM in data set [6]. Besides, the figures for the GI50 in data set [7] and in [8] were 5.45 µM and 49 µM, respectively. Besides, the “percentage of species by HPLC in a solution of CDTA-diplatinum (Example 1)” value in data set [9] (setting [10]) was 54%; in data set [9] (setting [11]), 1%; in data set [9] (setting [12]), 2%.

Consider `N.N.[Cl][Pt][Cl]` [Cisplatin, cis-[PtCl2(NH3)2], reference compound], for which the GI50 in data set [1] was 4 µM; in data set [2], 469 µM.

With “cyclohexane-trans-1,2-diaminetetraacetic-acid-monoplatinum [CDTA-monoplatinum]”, the GI50 in [1] came out at 6.4 µM; in data set [2], 9.71 µM; in data set [3] it was 65 µM; in data set [4] it was 38 µM; in [5], 10 µM; in data set [6] it was 18 µM. Also, the GI50 in data set [7] was found to be 5.57 µM. In addition, the “percentage of species by HPLC in a solution of CDTA-diplatinum (Example 1)” value turned out to be 45% in [9] (setting [10]), 99% in data set [9] (setting [11]) and 98% in data set [9] (setting [12]).

On to `N.N.O=C([O-])C1(C(=O)[O-])CCC1.[Pt+2]` [Carboplatin, cis-diamine[1,1-cyclobutanedicarboxylato(2-)]—O,O′-platinum (II), reference compound], for which the GI50 in [1] was 159 µM; in [2] it was 9 µM.
